Assay [1] addresses T1, POLD1 (p125, catalytic subunit of Polδ) (Xenopus laevis, UniProt Q642R8).
T1 construct: gene pold1.L
T1 sequence (Q642R8 1-1109): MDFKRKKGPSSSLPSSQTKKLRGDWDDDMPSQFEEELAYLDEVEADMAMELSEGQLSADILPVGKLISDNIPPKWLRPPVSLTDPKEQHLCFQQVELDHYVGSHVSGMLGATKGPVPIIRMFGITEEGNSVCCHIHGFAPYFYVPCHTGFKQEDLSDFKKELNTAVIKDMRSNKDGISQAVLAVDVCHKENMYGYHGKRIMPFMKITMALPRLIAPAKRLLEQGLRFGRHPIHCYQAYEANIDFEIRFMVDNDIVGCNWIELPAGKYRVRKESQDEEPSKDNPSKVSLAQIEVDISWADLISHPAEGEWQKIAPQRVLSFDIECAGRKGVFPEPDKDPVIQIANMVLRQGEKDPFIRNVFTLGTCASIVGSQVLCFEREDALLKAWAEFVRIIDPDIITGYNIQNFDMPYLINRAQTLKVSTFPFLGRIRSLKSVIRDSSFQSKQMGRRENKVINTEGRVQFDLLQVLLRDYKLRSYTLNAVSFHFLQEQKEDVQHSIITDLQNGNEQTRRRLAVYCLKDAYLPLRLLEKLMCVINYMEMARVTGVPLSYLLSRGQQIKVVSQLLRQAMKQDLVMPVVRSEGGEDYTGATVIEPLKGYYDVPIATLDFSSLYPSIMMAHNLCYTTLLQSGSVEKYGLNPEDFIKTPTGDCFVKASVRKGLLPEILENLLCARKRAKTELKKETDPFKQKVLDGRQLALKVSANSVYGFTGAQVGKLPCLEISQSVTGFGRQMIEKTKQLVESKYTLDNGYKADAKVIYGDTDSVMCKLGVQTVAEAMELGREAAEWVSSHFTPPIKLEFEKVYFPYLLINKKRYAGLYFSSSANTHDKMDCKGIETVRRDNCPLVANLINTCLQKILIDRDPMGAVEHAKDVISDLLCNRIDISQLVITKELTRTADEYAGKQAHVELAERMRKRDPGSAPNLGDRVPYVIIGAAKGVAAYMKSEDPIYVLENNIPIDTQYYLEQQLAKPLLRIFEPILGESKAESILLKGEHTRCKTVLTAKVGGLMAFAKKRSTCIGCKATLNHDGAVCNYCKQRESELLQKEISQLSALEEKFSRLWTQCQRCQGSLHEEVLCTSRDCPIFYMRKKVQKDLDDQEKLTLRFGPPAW
Description: CETSA in Xenopus egg extracts ([…] BKC), western blot. It counts as cell-free. For orientation: In western blotting, separated proteins are transferred to a membrane and probed.

The target of assay [2] is T2, POLD1 (catalytic subunit of DNA polymerase δ) (Homo sapiens, UniProt P28340).
T2 sequence (P28340 1-1107): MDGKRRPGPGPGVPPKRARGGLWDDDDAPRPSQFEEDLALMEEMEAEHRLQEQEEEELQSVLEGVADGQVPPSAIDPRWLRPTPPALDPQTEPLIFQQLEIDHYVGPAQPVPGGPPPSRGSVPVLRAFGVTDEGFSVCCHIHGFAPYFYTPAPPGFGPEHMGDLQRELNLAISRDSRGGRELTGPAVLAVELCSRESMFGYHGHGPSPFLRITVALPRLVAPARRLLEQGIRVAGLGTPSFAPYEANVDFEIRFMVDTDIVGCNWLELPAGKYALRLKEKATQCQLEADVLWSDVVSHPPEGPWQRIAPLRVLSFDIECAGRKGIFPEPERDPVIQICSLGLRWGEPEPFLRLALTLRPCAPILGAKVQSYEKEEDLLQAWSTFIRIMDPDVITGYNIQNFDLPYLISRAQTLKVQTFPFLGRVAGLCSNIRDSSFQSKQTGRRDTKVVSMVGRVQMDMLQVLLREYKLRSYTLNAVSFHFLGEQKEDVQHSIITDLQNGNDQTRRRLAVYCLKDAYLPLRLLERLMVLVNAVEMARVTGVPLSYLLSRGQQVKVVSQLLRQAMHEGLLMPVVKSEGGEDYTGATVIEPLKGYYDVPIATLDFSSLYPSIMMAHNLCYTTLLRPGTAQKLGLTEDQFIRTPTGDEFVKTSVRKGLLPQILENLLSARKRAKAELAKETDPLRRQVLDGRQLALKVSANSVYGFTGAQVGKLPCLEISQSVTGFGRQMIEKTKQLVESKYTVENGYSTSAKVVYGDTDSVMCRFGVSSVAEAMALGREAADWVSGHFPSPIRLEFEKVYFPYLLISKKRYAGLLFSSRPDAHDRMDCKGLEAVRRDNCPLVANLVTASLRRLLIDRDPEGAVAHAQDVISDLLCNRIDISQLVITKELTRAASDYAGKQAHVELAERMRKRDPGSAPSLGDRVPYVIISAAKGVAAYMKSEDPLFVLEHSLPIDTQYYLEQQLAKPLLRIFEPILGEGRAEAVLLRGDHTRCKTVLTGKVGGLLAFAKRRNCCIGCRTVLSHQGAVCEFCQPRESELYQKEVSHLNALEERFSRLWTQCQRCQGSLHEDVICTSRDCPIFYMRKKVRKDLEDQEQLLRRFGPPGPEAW
Description: CETSA in MCF-7 cells ([…] BKC), western blot. The format is cell-based.

In assay [3] the target is POLE (catalytic subunit of DNA polymerase ε) (Homo sapiens, UniProt Q07864). The assay can be described thus: CETSA in MCF-7 cells ([…] BKC), western blot. The format is cell-based.
For a further assay, the target named is T3, Aurora-B (Homo sapiens, UniProt Q96GD4).
T3 construct: gene AURKB
The assay can be described thus: radiometric in vitro kinase assay (Eurofins KinaseProfiler). It counts as biochemical.

Another assay deals with T4, CHK2 (Homo sapiens, UniProt O96017).
T4 construct: gene CHEK2
The assay can be described thus: radiometric in vitro kinase assay (Eurofins KinaseProfiler); also CETSA in MCF-7 cells. The format is biochemical.

A further assay has as its target T5, JNK3 (Homo sapiens, UniProt P53779).
T5 construct: gene MAPK10
The assay can be described thus: radiometric in vitro kinase assay (Eurofins KinaseProfiler). The format is biochemical.

In another assay the target is T6, Aurora-A (Homo sapiens, UniProt O14965).
T6 construct: gene AURKA
T6 sequence (O14965 1-403): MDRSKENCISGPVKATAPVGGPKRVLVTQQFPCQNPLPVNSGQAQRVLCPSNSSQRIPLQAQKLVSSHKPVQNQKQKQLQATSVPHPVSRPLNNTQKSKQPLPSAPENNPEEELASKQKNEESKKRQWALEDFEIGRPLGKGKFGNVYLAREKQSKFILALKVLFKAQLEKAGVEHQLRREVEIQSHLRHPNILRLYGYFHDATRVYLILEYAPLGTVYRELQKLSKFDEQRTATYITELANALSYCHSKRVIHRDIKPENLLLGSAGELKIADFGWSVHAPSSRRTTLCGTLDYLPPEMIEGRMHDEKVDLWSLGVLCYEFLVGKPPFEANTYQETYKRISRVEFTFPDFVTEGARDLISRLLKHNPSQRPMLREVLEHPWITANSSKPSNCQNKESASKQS
The assay is described as above. It counts as biochemical.

A further assay concerns the target AKT1/PKBα (Homo sapiens, UniProt P31749). Described as above. The format is biochemical.

Molecules are shown by their SMILES.

T5 sequence (P53779 whole entry): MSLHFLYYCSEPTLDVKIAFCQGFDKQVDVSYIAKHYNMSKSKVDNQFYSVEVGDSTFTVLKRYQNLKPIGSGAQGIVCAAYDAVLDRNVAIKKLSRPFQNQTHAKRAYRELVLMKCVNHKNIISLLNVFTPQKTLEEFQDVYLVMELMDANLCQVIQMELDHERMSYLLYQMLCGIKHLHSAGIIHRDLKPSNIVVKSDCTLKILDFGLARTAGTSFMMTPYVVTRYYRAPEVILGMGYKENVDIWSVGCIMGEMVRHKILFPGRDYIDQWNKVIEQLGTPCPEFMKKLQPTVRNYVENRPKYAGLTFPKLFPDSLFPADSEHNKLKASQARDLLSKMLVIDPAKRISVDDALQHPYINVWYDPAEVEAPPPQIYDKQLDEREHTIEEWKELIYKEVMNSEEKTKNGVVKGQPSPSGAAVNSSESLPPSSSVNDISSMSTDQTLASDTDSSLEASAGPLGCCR
Sequence of POLE (catalytic subunit of DNA polymerase ε) (Q07864 whole entry): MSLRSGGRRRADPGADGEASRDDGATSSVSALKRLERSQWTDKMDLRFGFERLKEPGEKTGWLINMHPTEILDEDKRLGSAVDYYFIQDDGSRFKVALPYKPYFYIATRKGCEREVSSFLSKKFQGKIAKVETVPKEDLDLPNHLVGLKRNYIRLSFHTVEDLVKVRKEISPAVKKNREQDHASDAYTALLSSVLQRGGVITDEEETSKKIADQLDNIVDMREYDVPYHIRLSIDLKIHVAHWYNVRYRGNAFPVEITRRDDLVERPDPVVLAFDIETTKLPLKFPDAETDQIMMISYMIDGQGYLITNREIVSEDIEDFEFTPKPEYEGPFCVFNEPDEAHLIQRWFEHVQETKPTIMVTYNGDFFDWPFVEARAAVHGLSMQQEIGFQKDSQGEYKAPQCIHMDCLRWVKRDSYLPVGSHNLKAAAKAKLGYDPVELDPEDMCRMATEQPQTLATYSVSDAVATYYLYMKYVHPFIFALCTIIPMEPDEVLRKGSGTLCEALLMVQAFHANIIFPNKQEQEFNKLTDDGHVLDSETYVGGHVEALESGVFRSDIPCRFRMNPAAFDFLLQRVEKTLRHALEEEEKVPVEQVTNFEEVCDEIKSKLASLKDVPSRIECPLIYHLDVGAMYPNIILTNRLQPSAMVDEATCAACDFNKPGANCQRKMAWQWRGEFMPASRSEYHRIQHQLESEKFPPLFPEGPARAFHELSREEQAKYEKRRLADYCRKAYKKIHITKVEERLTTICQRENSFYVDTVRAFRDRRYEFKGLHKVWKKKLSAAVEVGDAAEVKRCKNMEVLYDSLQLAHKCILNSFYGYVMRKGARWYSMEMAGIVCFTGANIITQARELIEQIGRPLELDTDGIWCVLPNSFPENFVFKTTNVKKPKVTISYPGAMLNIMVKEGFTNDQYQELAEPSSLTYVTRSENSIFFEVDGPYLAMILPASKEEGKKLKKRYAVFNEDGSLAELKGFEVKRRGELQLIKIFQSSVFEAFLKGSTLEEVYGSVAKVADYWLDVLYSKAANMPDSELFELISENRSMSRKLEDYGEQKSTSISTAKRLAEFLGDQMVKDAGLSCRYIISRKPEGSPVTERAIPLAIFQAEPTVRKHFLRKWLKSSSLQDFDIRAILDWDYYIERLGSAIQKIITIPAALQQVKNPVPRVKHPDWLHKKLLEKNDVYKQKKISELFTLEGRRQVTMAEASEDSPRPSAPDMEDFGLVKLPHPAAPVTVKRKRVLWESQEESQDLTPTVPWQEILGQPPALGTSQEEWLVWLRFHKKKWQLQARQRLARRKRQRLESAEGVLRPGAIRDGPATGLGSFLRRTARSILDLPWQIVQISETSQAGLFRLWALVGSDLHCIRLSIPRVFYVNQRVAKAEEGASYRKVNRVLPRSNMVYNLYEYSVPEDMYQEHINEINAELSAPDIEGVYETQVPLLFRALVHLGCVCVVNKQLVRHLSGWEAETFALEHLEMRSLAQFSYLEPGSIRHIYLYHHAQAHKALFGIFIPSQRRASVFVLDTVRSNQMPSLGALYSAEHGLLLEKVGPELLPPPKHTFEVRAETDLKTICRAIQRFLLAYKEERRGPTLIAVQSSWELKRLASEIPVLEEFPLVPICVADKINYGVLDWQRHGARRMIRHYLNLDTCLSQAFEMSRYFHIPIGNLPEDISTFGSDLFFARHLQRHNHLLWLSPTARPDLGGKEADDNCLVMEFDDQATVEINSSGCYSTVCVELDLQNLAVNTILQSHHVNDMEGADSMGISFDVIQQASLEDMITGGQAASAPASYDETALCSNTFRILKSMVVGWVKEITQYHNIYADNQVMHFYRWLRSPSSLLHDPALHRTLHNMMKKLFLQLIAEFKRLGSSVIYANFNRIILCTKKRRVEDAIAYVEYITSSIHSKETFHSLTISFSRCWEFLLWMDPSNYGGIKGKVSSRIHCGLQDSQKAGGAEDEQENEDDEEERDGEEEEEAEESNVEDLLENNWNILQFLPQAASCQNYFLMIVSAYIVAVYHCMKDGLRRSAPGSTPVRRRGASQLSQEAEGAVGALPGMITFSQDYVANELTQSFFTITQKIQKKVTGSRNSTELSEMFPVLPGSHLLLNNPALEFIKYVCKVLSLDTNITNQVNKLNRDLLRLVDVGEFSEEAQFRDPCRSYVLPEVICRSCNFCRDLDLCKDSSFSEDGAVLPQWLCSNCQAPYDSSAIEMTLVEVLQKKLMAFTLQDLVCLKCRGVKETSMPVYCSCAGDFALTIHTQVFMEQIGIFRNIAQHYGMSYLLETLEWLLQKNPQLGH
T3 sequence (Q96GD4 whole entry): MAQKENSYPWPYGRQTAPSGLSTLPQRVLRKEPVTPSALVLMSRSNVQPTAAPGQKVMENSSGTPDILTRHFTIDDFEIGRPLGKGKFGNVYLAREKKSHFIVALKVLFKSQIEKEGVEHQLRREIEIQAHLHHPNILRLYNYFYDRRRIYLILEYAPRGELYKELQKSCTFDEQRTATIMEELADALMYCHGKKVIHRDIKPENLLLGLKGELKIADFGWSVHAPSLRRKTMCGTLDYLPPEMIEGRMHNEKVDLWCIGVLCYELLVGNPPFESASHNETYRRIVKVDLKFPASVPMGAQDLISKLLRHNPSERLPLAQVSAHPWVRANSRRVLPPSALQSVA
T4 sequence (O96017 whole entry): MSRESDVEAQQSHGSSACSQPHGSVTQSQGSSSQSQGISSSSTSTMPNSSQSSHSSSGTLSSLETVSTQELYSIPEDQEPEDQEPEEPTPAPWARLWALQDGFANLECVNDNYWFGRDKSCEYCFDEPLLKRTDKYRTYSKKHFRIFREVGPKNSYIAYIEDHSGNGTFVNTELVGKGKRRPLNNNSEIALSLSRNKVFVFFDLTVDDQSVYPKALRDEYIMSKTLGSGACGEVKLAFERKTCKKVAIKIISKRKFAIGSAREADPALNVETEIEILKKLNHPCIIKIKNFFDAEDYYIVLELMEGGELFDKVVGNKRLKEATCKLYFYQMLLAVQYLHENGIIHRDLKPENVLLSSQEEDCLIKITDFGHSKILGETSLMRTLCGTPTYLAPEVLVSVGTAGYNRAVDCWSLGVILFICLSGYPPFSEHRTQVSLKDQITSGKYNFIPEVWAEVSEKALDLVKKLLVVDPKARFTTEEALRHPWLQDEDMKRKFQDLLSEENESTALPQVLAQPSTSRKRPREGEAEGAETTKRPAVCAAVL
Sequence of AKT1/PKBα (P31749 whole entry): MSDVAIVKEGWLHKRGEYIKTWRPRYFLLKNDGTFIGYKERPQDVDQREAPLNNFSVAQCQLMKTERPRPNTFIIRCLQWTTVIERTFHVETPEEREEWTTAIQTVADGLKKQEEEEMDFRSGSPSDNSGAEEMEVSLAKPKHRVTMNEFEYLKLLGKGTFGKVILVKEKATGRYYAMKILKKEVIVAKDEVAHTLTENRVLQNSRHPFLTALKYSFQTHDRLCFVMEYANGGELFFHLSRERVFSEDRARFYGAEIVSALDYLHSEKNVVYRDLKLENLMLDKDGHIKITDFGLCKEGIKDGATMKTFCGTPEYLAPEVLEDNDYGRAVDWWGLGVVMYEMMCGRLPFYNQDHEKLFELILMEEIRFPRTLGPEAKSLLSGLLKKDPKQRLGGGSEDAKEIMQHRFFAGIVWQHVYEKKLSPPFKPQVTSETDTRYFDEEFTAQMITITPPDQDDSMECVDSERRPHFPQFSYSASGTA

Regarding `C=C[C@@](C)(/C=C/c1ccc(O)cc1)CCC=C(C)C` [BKC, Bakuchiol], in assay [1], the “CETSA in Xenopus egg extracts (40 μM BKC), western blot” value is “BKC specifically stabilize the catalytic subunit POLD1 of Polδ, but not that of the accessory subunit POLD3 in Xenopus”. Moreover, the “CETSA in MCF-7 cells (40 μM BKC), western blot” value is “BKC interacts with the catalytic subunits of Polδ and Polε in MCF-7 cells” in assay [2]; “BKC interacts with the catalytic subunits of Polδ and Polε in MCF-7 cells” in assay [3].

By IC50 is commonly meant the concentration at which inhibition is half-maximal. Read a low IC50 as higher potency. For `CC(C)=CCc1c(O)ccc(C(=O)/C=C/c2ccc(O)cc2)c1O` [IBC, Isobavachalcone], the IC50 at Aurora-B worked out at 11.2 µM; against CHK2 it was 3.5 µM; on JNK3 it was 16.4 µM; at Aurora-A, 11.2 µM; against AKT1/PKBα, 56.7 µM.

The record behind these values is publication PMC11785374, “Synergistic effect of inhibiting CHK2 and DNA replication on cancer cell growth” (eLife, 2025).
